Drawing on the RepoRT retention time repository (doi:10.1016/j.scitotenv.2015.08.078), this text covers LC retention time for 76 molecules.

The data set is described as follows: RP, Waters ACQUITY UPLC BEH C18, 100 × 2.1 mm, 1.7 µm, 0.3 mL/min, estimated dead time 0.73 min; A: water + 0.1% formic acid, pH 3; B: methanol + 0.1% formic acid, pH 3; gradient (min/%B) 0/10 14/90 16/90 18/10. The settings on record: stereoisomer not certain.
Turning to `CNC(=O)ON=CC(C)(C)S(C)(=O)=O` [Aldicarb sulfone], the LC retention time is 4.8 min.

In the case of `O=C(OC1CC2CCC(N2)C1C(=O)O)c1ccccc1` (stereo unspecified) [Norbenzoylecgonine], the LC retention time was 5.1 min.

Consider `COC(=O)c1ccccc1S(=O)(=O)NC(=O)Nc1nc(OC(F)F)cc(OC(F)F)n1` [Primisulfuron-methyl], for which the LC retention time is 8.86 min.

For `Cc1ncc([N+](=O)[O-])n1CCO` [Metronidazole (MNZ)], the LC retention time is 5.38 min.

Regarding `CNC(=O)ON=C(C)SC` [Methomyl], the LC retention time is 3.09 min.

`NC(C(=O)NC1C(=O)N2C(C(=O)O)=C(Cl)CSC12)c1ccccc1` (stereo unspecified) [Cefaclor]: the LC retention time is 4.02 min.

`COC(=O)C1C2CCC(CC1OC(=O)c1ccccc1)N2` (stereo unspecified) [Norcocaine]: the LC retention time is 6.29 min.

Regarding `COC(=O)c1cccc(C)c1S(=O)(=O)NC(=O)Nc1nc(OCC(F)(F)F)nc(N(C)C)n1` [Triflusulfuron-methyl], the LC retention time is 9.27 min.

Take `CCCSP(=O)(OCC)Oc1ccc(Br)cc1Cl` (stereo unspecified) [Profenofos]: the LC retention time is 12.7 min.

On to `CN(C)c1ccc(C(c2ccccc2)c2ccc(N(C)C)cc2)cc1` [Leucomalachite green], for which the LC retention time is 10.4 min.

As for `COP(=S)(OC)Oc1c(Cl)cc(C)cc1Cl` [Tolclofos-methyl], the LC retention time was 12.1 min.

For `CN(C)S(=O)(=O)N(SC(F)(Cl)Cl)c1ccccc1` [Dichlofluanid], the LC retention time is 10.8 min.

On to `O=C(NC(=O)c1c(F)cccc1F)Nc1cc(Cl)c(F)c(Cl)c1F` [Teflubenzuron], for which the LC retention time was 13 min.

Turning to `Cn1c([N+](=O)[O-])cnc1C(C)(C)O` [Hydroxyipronidazole (IPZOH)], the LC retention time was 4.6 min.

Take `CCN(C(=O)SCc1ccccc1)C(C)C(C)C` (stereo unspecified) [Esprocarb]: the LC retention time was 12.8 min.

With `CCNC(=O)NC(=O)C(C#N)=NOC` [Cymoxanil], the LC retention time was 5.24 min.

As for `CCOC(=O)c1ccccc1S(=O)(=O)NC(=O)Nc1nc(Cl)cc(OC)n1` [Chlorimuron ethyl], the LC retention time was 8.65 min.

In the case of `Cc1ccnc(NS(=O)(=O)c2ccc(N)cc2)n1` [Sulfamerazine], the LC retention time was 2.75 min.

For `Nc1ccc(S(=O)(=O)Nc2ccccn2)cc1` [Sulfapyridine], the LC retention time was 2.55 min.

Turning to `CN1COCN(Cc2cnc(Cl)s2)C1=N[N+](=O)[O-]` [Thiamethoxam], the LC retention time was 3.27 min.

Turning to `CCCCOC(=O)C(C)Oc1ccc(Oc2ccc(C(F)(F)F)cn2)cc1` (stereo unspecified) [Fluaziflop-P-butyl], the LC retention time is 13.1 min.

With `COP(=O)(OC)C(O)C(Cl)(Cl)Cl` (stereo unspecified) [Trichlorfon], the LC retention time is 4.7 min.

Regarding `c1ccc(Nc2ccccc2)cc1` [Diphenylamine], the LC retention time was 10.5 min.

Take `CC(C)(C)C(O)(CCc1ccc(Cl)cc1)Cn1cncn1` (stereo unspecified) [Tebuconazole]: the LC retention time was 11.8 min.

As to `CCC(C(=O)O)C1CCC(C)C(C(C)C(O)C(C)C(=O)C(CC)C2OC3(C=CC(O)C4(CCC(C)(C5CCC(O)(CC)C(C)O5)O4)O3)C(C)CC2C)O1` (stereo unspecified) [Salinomycin], the LC retention time was 15.9 min.

Take `CNC(=O)Oc1cccc(N=CN(C)C)c1` [Formetanate]: the LC retention time is 2.06 min.

With `COc1nc(C)nc(NC(=O)NS(=O)(=O)c2ccccc2OCCCl)n1` [Triasulfuron], the LC retention time was 6.67 min.

As for `CC1(C)CCC(=Cc2ccc(Cl)cc2)C1(O)Cn1cncn1` (stereo unspecified) [Triticonazole], the LC retention time was 11 min.

In the case of `CC(C)=CC1C(C(=O)OCc2coc(Cc3ccccc3)c2)C1(C)C` (stereo unspecified) [Bioresmethrin], the LC retention time was 14.2 min.

For `CCC(C)C1OC2(CCC1C)CC1CC(CC=C(C)C(OC3CC(OC)C(OC4CC(OC)C(O)C(C)O4)C(C)O3)C(C)C=CC=C3COC4C(O)C(C)=CC(C(=O)O1)C34O)O2` (stereo unspecified) [Ivermectin], the LC retention time is 16.3 min.

`Cc1ncc([N+](=O)[O-])n1CCCO` [Ternidazole]: the LC retention time was 2.89 min.

Turning to `C=CCC1=C(C)C(OC(=O)C2C(C=C(C)C)C2(C)C)CC1=O` (stereo unspecified) [Allethrin], the LC retention time is 13.1 min.

Take `CN(C)C(=O)Nc1cccc(C(F)(F)F)c1` [Fluomethuron]: the LC retention time was 8.25 min.

As for `CCC(C)C1OC2(C=CC1C)CC1CC(CC=C(C)C(OC3CC(OC)C(OC4CC(OC)C(NC)C(C)O4)C(C)O3)C(C)C=CC=C3COC4C(O)C(C)=CC(C(=O)O1)C34O)O2` (stereo unspecified) [Emamectin B1a], the LC retention time is 13.8 min.

Turning to `CCCOC(=O)c1ccccc1C(=O)OCCC` [Dipropyl phthalate], the LC retention time is 11.1 min.

Turning to `CC(C)Nc1nc(Cl)nc(NC(C)C)n1` [Propazine], the LC retention time was 9.88 min.

For `Cc1cccc(Nc2ccccc2C(=O)O)c1C` [Mefenamic acid], the LC retention time is 13.4 min.

With `CCOP(=S)(OCC)Oc1nc(Cl)c(Cl)cc1Cl` [Chloropyrifos], the LC retention time was 14.1 min.

Regarding `CN(C)CCCN1c2ccccc2Sc2ccc(C(F)(F)F)cc21` [Triflupromazine], the LC retention time was 10.6 min.

On to `CC1(C)CN=C(NN=C(C=Cc2ccc(C(F)(F)F)cc2)C=Cc2ccc(C(F)(F)F)cc2)NC1` [Hydramethylnon], for which the LC retention time is 12.8 min.

For `COc1ccc(-c2ccccc2)cc1NNC(=O)OC(C)C` [Bifenazate], the LC retention time was 10.8 min.

Take `COc1ncnc(NS(=O)(=O)c2ccc(N)cc2)c1OC` [Sulfadoxine]: the LC retention time was 5 min.

On to `O=C(NC(=O)c1c(F)cccc1F)Nc1cc(Cl)c(Oc2ncc(C(F)(F)F)cc2Cl)c(Cl)c1` [Chlorfluazuron], for which the LC retention time was 13.9 min.

Take `CCOC(=O)c1cnn(C)c1S(=O)(=O)NC(=O)Nc1nc(OC)cc(OC)n1` [Pyrazosulfuron-ethyl]: the LC retention time was 7.91 min.

For the molecule `CC(Oc1ccc(Oc2ncc(C(F)(F)F)cc2Cl)cc1)C(=O)O` (stereo unspecified) [Haloxyfop], the LC retention time is 11.8 min.

For `CC(C)(C)NCC(O)c1cc(Cl)c(N)c(Cl)c1` (stereo unspecified) [Clenbuterol], the LC retention time was 5.15 min.

Consider `CN(C)c1nc(=O)n(C2CCCCC2)c(=O)n1C` [Hexazinone], for which the LC retention time is 7.56 min.

Regarding `CSc1nnc(C(C)(C)C)c(=O)n1N` [Metribuzin], the LC retention time is 7.06 min.

In the case of `CC1CCCC(O)CCCCCc2cc(O)cc(O)c2C(=O)O1` (stereo unspecified) [Zeranol (Alfa Zearalanol. a-ZAL)], the LC retention time was 10.7 min.

On to `CCNc1nc(Cl)nc(NC(C)(C)C)n1` [Terbuthylazine], for which the LC retention time was 10.5 min.

Turning to `CC(C)(C)C(O)C(Oc1ccc(-c2ccccc2)cc1)n1cncn1` (stereo unspecified) [Bitertanol], the LC retention time was 12 min.

On to `CCC(=C(CC)c1ccc(O)cc1)c1ccc(O)cc1` [Diethylstilbestrol], for which the LC retention time is 10.9 min.

On to `CC1(C(=O)Nc2ccc(O)c(Cl)c2Cl)CCCCC1` [Fenhexamid], for which the LC retention time is 11.5 min.

`CC1COc2ccccc2N1C(=O)C(Cl)Cl` (stereo unspecified) [Benoxacor]: the LC retention time is 9.47 min.

`CC1(C)CCC(Cc2ccc(Cl)cc2)C1(O)Cn1cncn1` (stereo unspecified) [Metconazole]: the LC retention time is 11.9 min.

`CC1C(c2ccc(Cl)cc2)SC(=O)N1C(=O)NC1CCCCC1` (stereo unspecified) [Hexythiazox]: the LC retention time was 14.2 min.

In the case of `CCC(C)Nc1c([N+](=O)[O-])cc(C(C)(C)C)cc1[N+](=O)[O-]` (stereo unspecified) [Butralin], the LC retention time is 13.5 min.

As to `CC(C)OC(=O)C(C(=O)OC(C)C)=C1SCCS1` [Isoprothiolane], the LC retention time was 10.4 min.

Consider `CC(C)(C)C(O)C(=Cc1ccc(Cl)cc1Cl)n1cncn1` (stereo unspecified) [Diniconazole], for which the LC retention time is 12.2 min.

In the case of `COC(=O)NC(=S)Nc1ccccc1NC(=S)NC(=O)OC` [Thiophanate-methyl], the LC retention time was 7.2 min.

Regarding `CC(C)N(Cc1ccccc1)C(=O)C(C)(C)C` [Tebutam], the LC retention time is 11.1 min.

Consider `CCn1cc(C(=O)O)c(=O)c2cnc(N3CCNCC3)nc21` [Pipemidic acid], for which the LC retention time is 3.48 min.

Turning to `CON=C(C(=O)NC1C(=O)N2C(C(=O)[O-])=C(C[n+]3cccc4c3CCCC4)CSC12)c1csc(N)n1` (stereo unspecified) [Cefquinome], the LC retention time is 3.4 min.

`CCC(C)(C)C(=O)OC1CC(C)C=C2C=CC(C)C(CCC3CC(O)CC(=O)O3)C21` (stereo unspecified) [Simvastatin]: the LC retention time was 14.2 min.

For `CCCSP(=O)(OCC)SCCC` [Ethoprophos], the LC retention time is 11.1 min.

Take `CC(=O)c1ccc2c(c1)N(CCCN(C)C)c1ccccc1S2` [Acepromazine]: the LC retention time is 8.97 min.

On to `NS(=O)(=O)c1cc(C(=O)O)c(NCc2ccco2)cc1Cl` [Furosemide], for which the LC retention time was 6.6 min.

For `CCCCCc1cc(O)c2c(c1)OC(C)(C)C1CCC(C)=CC21` (stereo unspecified) [THC], the LC retention time was 15.2 min.

`CC(C)(SC(=O)N1CCCCC1)c1ccccc1` [Dimepiperate]: the LC retention time is 12.3 min.

As for `CCCC1COC(Cn2cncn2)(c2ccc(Cl)cc2Cl)O1` (stereo unspecified) [Propiconazole], the LC retention time is 12.5 min.

For the molecule `CCOP(=O)(OCC)OC(=CCl)c1ccc(Cl)cc1Cl` [Chlorfenvinphos], the LC retention time is 12 min.

In the case of `CN(C)CCC(c1ccc(Cl)cc1)c1ccccn1` (stereo unspecified) [Chlorpheniramine], the LC retention time is 7.27 min.

Regarding `CCC(C)(C)NCC(O)c1cc(Cl)c(N)c(Cl)c1` (stereo unspecified) [Clenpenterol], the LC retention time is 6.19 min.

Take `O=C(Nc1ccccc1-c1ccc(Cl)cc1)c1cccnc1Cl` [Boscalid]: the LC retention time is 10.7 min.

`O=C1CN(N=Cc2ccc([N+](=O)[O-])o2)C(=O)N1` [Nitrofurantoin]: the LC retention time is 2.83 min.

In the case of `COP(=S)(OC)SCN1C(=O)c2ccccc2C1=O` [Phosmet], the LC retention time is 9.52 min.
